In patent US20070196484A1, “Poorly water-soluble drug-containing solid formulation” (priority 2004, published 2007):
≈ marks a conversion by molar mass, not a printed value.

Tests used:
[1] = Solubility of bisacodyl in the co-existence of dioctyl sodium sulfosuccinate; format: physicochemical; conditions: for solubility at 5 h: thermodynamic from solid
Experimental: Variation in solubility of bisacodyl was studied in the co-existence of bisacodyl and dioctyl sodium sulfosuccinate. Bisacodyl was dispersed in purified water and the dispersion was shaken under given conditions for 5 hours. The resulting liquid was centrifuged at 3000 min^−1 for 5 min. Then, the supernatant was collected and the amount of dissolved bisacodyl was determined by HPLC. In a similar manner, bisacodyl was dispersed in solutions containing dioctyl sodium sulfosuccinate at 0.07%, 0.14% and 0.35%. Each dispersion was shaken and centrifuged at 3000 min^−1 for 5 min. Then, the supernatant was collected and the amount of dissolved bisacodyl was determined by HPLC.

SD male rats [2] = experiment: Oral administration test, onset of catharsis; format: in vivo, rat; conditions: bisacodyl 2 mg/kg, DSS 3.2 mg/kg, observed 24 hours, FIG. 3
Experimental: (§1) SD male rats were used in 10 animals per group. Test substances used were bisacodyl alone (2 mg/kg), DSS alone (3.2 mg/kg) and bisacodyl (2 mg/kg)+DSS (3.2 mg/kg).

SD male rats [3] = experiment: Intra-ileal administration test, onset of catharsis; format: in vivo, rat; conditions: bisacodyl 2 mg/kg, DSS 3.2 mg/kg, observed 24 hours, FIG. 3
Experimental: as §1
A rat underwent laparotomy under ether anesthesia and a test substance was injected via a syringe into an ileum at 20 cm to the mouth from the ileocecum at a dose of 1 mL/kg rat weight.

CC(=O)Oc1ccc(C(c2ccc(OC(C)=O)cc2)c2ccccn2)cc1 [Bisacodyl]
solubility at 5 h ([1]; 0.07% dioctyl sodium sulfosuccinate aqueous solution, aqueous with cosolvent or surfactant or cyclodextrin, Sample 1: 0.07% DSS aq.): 3.62 µg/mL (≈ 10 µM)
solubility at 5 h ([1]; 0.14% dioctyl sodium sulfosuccinate aqueous solution, aqueous with cosolvent or surfactant or cyclodextrin, Sample 2: 0.14% DSS aq.): 4.51 µg/mL (≈ 12.5 µM)
solubility at 5 h ([1]; 0.35% dioctyl sodium sulfosuccinate aqueous solution, aqueous with cosolvent or surfactant or cyclodextrin, Sample 3: 0.35% DSS aq.): 12.7 µg/mL (≈ 35.1 µM)
Proportion to control (solubility of bisacodyl) ([1]; Sample 1: 0.07% DSS aq.): 191.5%
Proportion to control (solubility of bisacodyl) ([1]; Sample 2: 0.14% DSS aq.): 238.6%
Proportion to control (solubility of bisacodyl) ([1]; Sample 3: 0.35% DSS aq.): 672.0%
solubility at 5 h ([1]; Control: purified water, 0% DSS, shaken 5 hours): 1.89 µg/mL (≈ 5.23 µM)

CCCCC(CC)COC(=O)CC(C(=O)OCC(CC)CCCC)S(=O)(=O)[O-].[Na+] (stereo not drawn) [DSS, Dioctyl sodium sulfosuccinate]
Cathartic effect (catharsis incidence) (SD male rats [2]): cathartic effect was not observed
Cathartic effect (catharsis incidence) (SD male rats [3]): cathartic effect was not observed
